Assay results: patent US12552826B2, “PRMT5 inhibitors” (Merck Sharp & Dohme LLC, priority 2018, dated 2026)

Biological target: T1, PRMT5 (Homo sapiens, UniProt O14744)
T1 construct: endogenous in cells; host or cells: MCF-7
Assay: PRMT5 Cell Target Engagement (TE) Assay
Format: cell-based
Settings: MCF-7 cells, 3 days treatment, nuclear SDMA by high content imaging
Source text: The PRMT5 TE assay is a biomarker assay for identifying compounds that inhibit symmetric dimethylation of arginine (SDMA) of PRMT5 substrates. The following substrates have been reported for PRMT5: Histone H2A and H4 R3, Histone H3 R2, Histone H3 R8, spliceosome Sm proteins, ribosomal protein RPS10, p53, FEN1, nucleoplasmin, nucleolin, EGFR and EBNA. The assay will focus on detecting symmetrically dimethylated nuclear proteins using high content imaging technology. Detection of the expression of symmetrically dimethylated nuclear proteins is through a mixture of primary rabbit monoclonal antibodies to SDMA (CST 13222), which in turn recognized by an Alexafluor 488 dye-conjugated anti-rabbit IgG secondary antibody. The IN Cell Analyzer 2200 or Opera-Phenix measures nuclear Alexafluor 488 fluorescent dye intensity that is directly related to the level of expression of symmetrically dimethylated nuclear proteins at the single cell level. Nuclear AF488 dye intensities are compared to the mean value for DMSO treated cells (MIN) to report percent of inhibition for each compound-treated well.
In this assay, the cell potency (EC50) of each compound was determined from a ten point (1:3 serial dilution; top compound concentration of 10000 nM) titration curve using the following outlined procedure. Each well of a BD falcon collagen coated black/clear bottom 384-well plate was seeded with 4000 MCF-7 cells in 30 μl media and allowed to attach for 5 hours. Media is ATCC-formulated Eagle's Minimum Essential Medium, Catalog No. 30-2003. The following components were added to the base medium: 0.01 mg/mL human recombinant insulin; fetal bovine serum to a final concentration of 10%. Additional 30 μl of media containing 2× compounds were added to each well. Cells were treated for 3 days in 37° C. CO2 incubator. On day 3, cells were fixed with Cytofix, permeabilized with 0.4% Triton-X-100/Cytofix, and washed with D-PBS without Ca/Mg. Cells were blocked with Licor Odessey blocking reagent for 1 hour at room temperature, followed by incubation with anti-SDMA (1:1000) antibody at 4° C. overnight. 1° antibody was removed, followed by three washings with DPBS without Ca/Mg and 0.05% Tween20. Hoechst (5 μg/mL), Cell Mask deep stain (1:2000) and Alexa488-conjugated goat anti-rabbit IgG (2 μg/mL) was added for 1 hour at room temperature. A final washing step (three washes) was performed before sealing plate for imaging on In Cell Analyzer 2200 or Opera-Phenix. Images from analyzer were uploaded to Columbus for image analysis. IC50 values were determined by 4 parameters robust fit of percent fluorescence units vs. (Log10) compound concentrations.

T1 sequence (O14744 whole entry): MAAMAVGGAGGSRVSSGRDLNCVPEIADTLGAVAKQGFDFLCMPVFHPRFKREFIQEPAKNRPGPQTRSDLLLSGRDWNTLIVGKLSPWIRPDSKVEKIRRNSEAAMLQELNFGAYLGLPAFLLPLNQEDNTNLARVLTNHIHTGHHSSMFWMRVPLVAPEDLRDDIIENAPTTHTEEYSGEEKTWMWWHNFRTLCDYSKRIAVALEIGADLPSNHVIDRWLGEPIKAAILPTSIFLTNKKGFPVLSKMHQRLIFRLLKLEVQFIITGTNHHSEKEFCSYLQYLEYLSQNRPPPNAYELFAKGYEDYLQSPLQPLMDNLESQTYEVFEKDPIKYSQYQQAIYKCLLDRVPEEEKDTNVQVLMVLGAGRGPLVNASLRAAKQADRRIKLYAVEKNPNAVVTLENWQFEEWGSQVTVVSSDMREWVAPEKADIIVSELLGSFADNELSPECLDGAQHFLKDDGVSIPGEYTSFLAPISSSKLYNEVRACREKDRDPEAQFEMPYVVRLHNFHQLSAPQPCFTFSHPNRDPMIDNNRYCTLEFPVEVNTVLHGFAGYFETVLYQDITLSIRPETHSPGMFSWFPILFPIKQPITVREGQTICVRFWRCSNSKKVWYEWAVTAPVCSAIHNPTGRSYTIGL
T1 sequence (Q9BQA1 whole entry partner): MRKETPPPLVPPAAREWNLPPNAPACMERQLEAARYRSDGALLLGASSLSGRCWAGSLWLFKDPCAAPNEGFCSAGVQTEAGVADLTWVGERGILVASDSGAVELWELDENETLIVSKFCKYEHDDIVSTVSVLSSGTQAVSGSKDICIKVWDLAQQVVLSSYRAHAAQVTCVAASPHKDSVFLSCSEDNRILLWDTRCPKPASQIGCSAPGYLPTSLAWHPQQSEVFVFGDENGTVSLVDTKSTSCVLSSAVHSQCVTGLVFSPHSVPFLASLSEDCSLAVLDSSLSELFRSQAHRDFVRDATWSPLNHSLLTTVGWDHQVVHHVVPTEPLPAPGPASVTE

Compound	EC50 [nM]
C[C@]1(O)[C@@H](O)[C@H](n2ccc3c(N)ncnc32)O[C@@H]1[C@@](C)(O)c1ccnc(C(F)F)c1 [Example 81, 7-{6-deoxy-5-C-[2-(difluoromethyl)pyridin-4-yl]-3-C-methyl-beta-D-allofuranosyl}-7H-pyrrolo[2,3-d]pyrimidin-4-amine]	> 10000
Cc1ccccc1[C@@H](O)[C@H]1O[C@@H](n2ccc3c(N)ncnc32)[C@H](O)[C@]1(C)O [Example 40, 7-[(5R)-3-C-methyl-5-C-(2-methylphenyl)-beta-D-ribofuranosyl]-7H-pyrrolo[2,3-d]pyrimidin-4-amine]	2270
C[C@]1(O)[C@@H](O)[C@H](n2ccc3c(N)ncnc32)O[C@@H]1[C@](C)(O)c1cccc2c1CNCC2 [Example 63, 7-[6-deoxy-3-C-methyl-5-C-(1,2,3,4-tetrahydroisoquinolin-8-yl)-beta-D-ribo-hexofuranosyl]-7H-pyrrolo[2,3-d]pyrimidin-4-amine]	182
C[C@@]1(O)[C@@H]([C@H](O)c2cc(F)cc(C(F)F)c2)O[C@@H](n2ccc3c(N)ncnc32)[C@@H]1O [Example 4, (2R,3S,4R,5R)-5-(4-amino-7H-pyrrolo[2,3-d]pyrimidin-7-yl)-2-((R)-(3-(difluoromethyl)-5-fluorophenyl)(hydroxy)methyl)-3-methyltetrahydrofuran-3,4-diol]	16
C[C@@]1(O)[C@@H]([C@H](O)c2cc(F)cc(C(F)F)c2F)O[C@@H](n2ccc3c(N)ncnc32)[C@@H]1O [Example 6, (2R,3S,4R,5R)-5-(4-amino-7H-pyrrolo[2,3-d]pyrimidin-7-yl)-2-((R)-(3-(difluoromethyl)-2,5-difluorophenyl)(hydroxy)methyl)-3-methyltetrahydrofuran-3,4-diol]	6.8
C[C@@]1(O)[C@@H]([C@H](O)c2cc(F)c(F)c(C(F)F)c2)O[C@@H](n2ccc3c(N)ncnc32)[C@@H]1O [Example 64, 7-{(5R)-5-C-[3-(difluoromethyl)-4,5-difluorophenyl]-3-C-methyl-beta-D-ribofuranosyl}-7H-pyrrolo[2,3-d]pyrimidin-4-amine]	219
C[C@@]1(O)[C@@H]([C@H](O)c2cc(C(F)F)c(F)c3c2CNCC3)O[C@@H](n2ccc3c(N)ncnc32)[C@@H]1O [Example 8, (2R,3S,4R,5R)-5-(4-amino-7H-pyrrolo[2,3-d]pyrimidin-7-yl)-2-((R)-(6-(difluoromethyl)-5-fluoro-1,2,3,4-tetrahydroisoquinolin-8-yl)(hydroxy)methyl)-3-methyltetrahydrofuran-3,4-diol]	65
Cc1ncnc2c1ccn2[C@@H]1O[C@H]([C@](C)(O)c2cccc3c2CNCC3)[C@@](C)(O)[C@H]1O [Example 88, (2R,3S,4R,5R)-2-((R)-1-hydroxy-1-(1,2,3,4-tetrahydroisoquinolin-8-yl)ethyl)-3-methyl-5-(4-methyl-7H-pyrrolo[2,3-d]pyrimidin-7-yl)tetrahydrofuran-3,4-diol]	47
Cc1ncnc2c1ccn2[C@@H]1O[C@H]([C@@H](C)c2cc(C(F)F)c(F)c3c2CNCC3)[C@@](C)(O)[C@H]1O (single isomer, unassigned) [Example 93]	1.4
C[C@@]1(O)[C@@H]([C@H](O)c2ccnc(C(F)F)c2)O[C@@H](n2ccc3c(N)ncnc32)[C@@H]1O [Example 78, 7-{(5R)-5-C-[2-(difluoromethyl)pyridin-4-yl]-3-C-methyl-beta-D-ribofuranosyl}-7H-pyrrolo[2,3-d]pyrimidin-4-amine]	1420
C[C@@]1(O)[C@@H]([C@H](O)c2cc(Cl)cc(Cl)c2)O[C@@H](n2ccc3c(N)ncnc32)[C@@H]1O [Example 18, 7-[(5R)-5-C-(3,5-dichlorophenyl)-3-C-methyl-beta-D-ribofuranosyl]-7H-pyrrolo[2,3-d]pyrimidin-4-amine]	14
C[C@@]1(O)[C@@H]([C@H](O)c2cccc(C(F)(F)F)c2)O[C@@H](n2ccc3c(N)ncnc32)[C@@H]1O [Example 54, 7-{(5R)-3-C-methyl-5-C-[3-(trifluoromethyl)phenyl]-beta-D-ribofuranosyl}-7H-pyrrolo[2,3-d]pyrimidin-4-amine]	391
C[C@@]1(O)[C@@H]([C@@H](O)c2cccc(F)c2F)O[C@@H](n2ccc3c(N)ncnc32)[C@@H]1O [Example 45, 7-[(5S)-5-C-(2,3-difluorophenyl)-3-C-methyl-beta-D-ribofuranosyl]-7H-pyrrolo[2,3-d]pyrimidin-4-amine]	> 10000
C[C@@]1(O)[C@@H]([C@H](O)c2cc(Cl)cc(C(F)(F)F)c2)O[C@@H](n2ccc3c(N)ncnc32)[C@@H]1O [Example 60, 7-{(5R)-5-C-[3-chloro-5-(trifluoromethyl)phenyl]-3-C-methyl-beta-D-ribofuranosyl}-7H-pyrrolo[2,3-d]pyrimidin-4-amine]	403
Cc1ncnc2c1ccn2[C@@H]1O[C@H]([C@](C)(O)c2cc(C(F)F)c(F)c3c2CNCC3)[C@@](C)(O)[C@H]1O [Example 91, (2R,3S,4R,5R)-2-((R)-1-(6-(difluoromethyl)-5-fluoro-1,2,3,4-tetrahydroisoquinolin-8-yl)-1-hydroxyethyl)-3-methyl-5-(4-methyl-7H-pyrrolo[2,3-d]pyrimidin-7-yl)tetrahydrofuran-3,4-diol]	0.54
C=C(c1cc(F)cc(C(F)F)c1)[C@H]1O[C@@H](n2ccc3c(N)ncnc32)[C@H](O)[C@]1(C)O [Example 82, (2R,3S,4R,5R)-5-(4-amino-7H-pyrrolo[2,3-d]pyrimidin-7-yl)-2-(1-(3-(difluoromethyl)-5-fluorophenyl)vinyl)-3-methyltetrahydrofuran-3,4-diol]	280
C[C@]1(O)[C@@H](O)[C@H](n2ccc3c(N)ncnc32)O[C@@H]1[C@@](C)(O)c1cccc2c1CNCC2 [Example 69, 7-[6-deoxy-3-C-methyl-5-C-(1,2,3,4-tetrahydroisoquinolin-8-yl)-beta-D-allofuranosyl]-7H-pyrrolo[2,3-d]pyrimidin-4-amine]	507
C[C@@]1(O)[C@@H]([C@H](O)c2cccc(C(F)F)c2)O[C@@H](n2ccc3c(N)ncnc32)[C@@H]1O [Example 56, 7-{(5R)-5-C-[3-(difluoromethyl)phenyl]-3-C-methyl-beta-D-ribofuranosyl}-7H-pyrrolo[2,3-d]pyrimidin-4-amine]	32
Cc1ncnc2c1ccn2[C@@H]1O[C@H]([C@@H](C)c2cccc3c2CNCC3)[C@@](C)(O)[C@H]1O [Example 87, (2R,3S,4R,5R)-3-methyl-5-(4-methyl-7H-pyrrolo[2,3-d]pyrimidin-7-yl)-2-((S)-1-(1,2,3,4-tetrahydroisoquinolin-8-yl)ethyl)tetrahydrofuran-3,4-diol]	65
C[C@@]1(O)[C@@H]([C@@H](O)c2cccc(Cl)c2F)O[C@@H](n2ccc3c(N)ncnc32)[C@@H]1O [Example 47, 7-[(5S)-5-C-(3-chloro-2-fluorophenyl)-3-C-methyl-beta-D-ribofuranosyl]-7H-pyrrolo[2,3-d]pyrimidin-4-amine]	> 10000
C[C@]1(O)[C@@H](O)[C@H](n2ccc3c(N)ncnc32)O[C@@H]1[C@](C)(O)c1ccc(F)c(F)c1 [Example 3, (2R,3S,4R,5R)-5-(4-amino-7H-pyrrolo[2,3-d]pyrimidin-7-yl)-2-((R)-1-(3,4-difluorophenyl)-1-hydroxyethyl)-3-methyltetrahydrofuran-3,4-diol]	145
C[C@H](c1cc(F)cc(C(F)F)c1)[C@H]1O[C@@H](n2ccc3c(N)ncnc32)[C@H](O)[C@]1(C)O (single isomer, unassigned) [Example 84]	253
C[C@@]1(O)[C@@H]([C@@H](O)c2cc(F)cc(F)c2F)O[C@@H](n2ccc3c(N)ncnc32)[C@@H]1O [Example 53, 7-[(5S)-3-C-methyl-5-C-(2,3,5-trifluorophenyl)-beta-D-ribofuranosyl]-7H-pyrrolo[2,3-d]pyrimidin-4-amine]	8960
C[C@@]1(O)[C@@H]([C@@H](O)c2ccc(F)c(F)c2)O[C@@H](n2ccc3c(N)ncnc32)[C@@H]1O [Example 2, (2R,3S,4R,5R)-5-(4-amino-7H-pyrrolo[2,3-d]pyrimidin-7-yl)-2-((S)-(3,4-difluorophenyl)(hydroxy)methyl)-3-methyltetrahydrofuran-3,4-diol]	> 10000
C[C@@]1(O)[C@@H]([C@@H](O)c2cc(C(F)F)c(F)c3c2CNCC3)O[C@@H](n2ccc3c(N)ncnc32)[C@@H]1O [Example 9, (2R,3S,4R,5R)-5-(4-amino-7H-pyrrolo[2,3-d]pyrimidin-7-yl)-2-((S)-(6-(difluoromethyl)-5-fluoro-1,2,3,4-tetrahydroisoquinolin-8-yl)(hydroxy)methyl)-3-methyltetrahydrofuran-3,4-diol]	157
